Literature values, collected in patent US20120058151A1, “NANOPARTICULATE COMPOSITIONS OF POORLY SOLUBLE COMPOUNDS” (CAPSULUTION PHARMA AG, priority 2008, published 2012).

Structure (SMILES): CCOc1nc2cccc(C(=O)OC(C)OC(=O)OC3CCCCC3)c2n1Cc1ccc(-c2ccccc2-c2nnn[nH]2)cc1 (stereo not shown) [candesartan cilexetil]
- solubility in water: practically insoluble in water
